{"source": "patent US4089965A", "about": "“Thiazolylphenylguanidines as antirhinovirus agents” (American Cyanamid Company, priority 1977, dated 1978)", "key": {"Rhinovirus strain 5": {"system": "Rhinovirus strain 5", "assay": "Protection of tissue from cytopathic effects (plaque inhibition, filter paper disc or agar overlay)", "details": "33°, 3 to 5 days"}, "Rhinovirus Serotype 32": {"system": "Rhinovirus Serotype 32", "assay": "Plaque assay, minimal inhibitory concentration", "assay_type": "cell-based", "details": "Enterovirus; HeLa Cells; inhibiting virus plaque formation by 50%"}, "rhinoviruses": {"system": "rhinoviruses", "assay": "Activity in three human epithelial cell lines", "assay_type": "cell-based, rhinovirus", "details": "Hela, L-132 and Detroit-6"}, "Rhinovirus Serotype 12": {"system": "Rhinovirus Serotype 12", "assay": "Plaque assay, minimal inhibitory concentration", "assay_type": "cell-based", "details": "Enterovirus; HeLa Cells; inhibiting virus plaque formation by 50%"}, "Coxsackievirus A-21": {"system": "Coxsackievirus A-21", "assay": "Plaque assay, minimal inhibitory concentration", "assay_type": "cell-based", "details": "HeLa Cells, inhibiting virus plaque formation by 50%"}, "Rhinovirus Serotype 39": {"system": "Rhinovirus Serotype 39", "assay": "Plaque assay, minimal inhibitory concentration", "assay_type": "cell-based", "details": "Enterovirus; HeLa Cells; inhibiting virus plaque formation by 50%"}, "Coxsackievirus A-11": {"system": "Coxsackievirus A-11", "assay": "Plaque assay, minimal inhibitory concentration", "assay_type": "cell-based", "details": "HeLa Cells, inhibiting virus plaque formation by 50%"}, "Rhinovirus Type 36": {"system": "Rhinovirus Type 36", "assay": "Viral sensitivity, filter disc method", "assay_type": "cell-based", "details": "strain 342H; about 50 mcg per disc, HeLa", "protocol": "(§1) In the test for viral sensitivity, by the filter disc method, 5 mg. of 1-(4-phenyl-2-thiazolyl)-3-phenylguanidine was dissolved in 1-2 drops of dimethylsulfoxide and 2.5 ml. of saline. Filter paper discs, when saturated with the solution, absorbed about 50 mcg. of the compound.\n(§2) Sensitivity tests were performed by a modification of the method of Herrmann, et al., Proc. Soc. Exp. Biol. & Med., 103, 625 (1960). HeLa monolayers in 150 mm plastic dishes were infected with 1.0 ml. of rhinovirus suspension known to produce destruction of 80-90% of the cells in 4 to 5 days. Following viral adsorption, the cells were overlayed with 30 ml. of Eagle's minimum essential medium containing Noble agar at 0.5%, bovine fetal serum at 2.0%, diethylaminoethyl dextran at 100 mcg/ml. and magnesium chloride at 3 millimoles. Filter discs (1/4 inch Carl Schleicher and Schuell Co., No. 740E), containing about 50 mcg. of 1-(4-phenyl-2-thiazolyl)-3-phenylguanidine, were placed on the solidified surface and the culture plates incubated at 33° C. After 4 to 5 days, the overlay medium was decanted and the cells stained with 0.1% crystal violet in 20% ethanol. A zone of 10 mm or more in which at least two-thirds of the cells were protected from viral cytopathic effects, indicates antiviral activity. The following Table III lists 35 rhinovirus serotypes which were inhibited by this compound."}, "Rhinovirus Type 30": {"system": "Rhinovirus Type 30", "assay": "Viral sensitivity, filter disc method", "assay_type": "cell-based", "details": "strain 106F; about 50 mcg per disc, HeLa", "protocol": "as §1, §2"}, "Rhinovirus Type 15": {"system": "Rhinovirus Type 15", "assay": "Viral sensitivity, filter disc method", "assay_type": "cell-based", "details": "strain 1734; about 50 mcg per disc, HeLa", "protocol": "as §1, §2"}, "Rhinovirus Type 47": {"system": "Rhinovirus Type 47", "assay": "Viral sensitivity, filter disc method", "assay_type": "cell-based", "details": "strain 1979MCV46; about 50 mcg per disc, HeLa", "protocol": "as §1, §2"}, "Rhinovirus Type 19": {"system": "Rhinovirus Type 19", "assay": "Viral sensitivity, filter disc method", "assay_type": "cell-based", "details": "strain 6072CV18; about 50 mcg per disc, HeLa", "protocol": "as §1, §2"}, "Rhinovirus Type 5": {"system": "Rhinovirus Type 5", "assay": "Viral sensitivity, filter disc method", "assay_type": "cell-based", "details": "strain Norman; about 50 mcg per disc, HeLa", "protocol": "as §1, §2"}, "Rhinovirus Type 13": {"system": "Rhinovirus Type 13", "assay": "Viral sensitivity, filter disc method", "assay_type": "cell-based", "details": "strain 353; about 50 mcg per disc, HeLa", "protocol": "as §1, §2"}, "Rhinovirus Type 52": {"system": "Rhinovirus Type 52", "assay": "Viral sensitivity, filter disc method", "assay_type": "cell-based", "details": "strain 515-CV34; about 50 mcg per disc, HeLa", "protocol": "as §1, §2"}, "Rhinovirus Type 25": {"system": "Rhinovirus Type 25", "assay": "Viral sensitivity, filter disc method", "assay_type": "cell-based", "details": "strain 5426CV26; about 50 mcg per disc, HeLa", "protocol": "as §1, §2"}, "Rhinovirus Type 31": {"system": "Rhinovirus Type 31", "assay": "Viral sensitivity, filter disc method", "assay_type": "cell-based", "details": "strain 140F; about 50 mcg per disc, HeLa", "protocol": "as §1, §2"}, "Rhinovirus Type 51": {"system": "Rhinovirus Type 51", "assay": "Viral sensitivity, filter disc method", "assay_type": "cell-based", "details": "strain 605CV45; about 50 mcg per disc, HeLa", "protocol": "as §1, §2"}, "Rhinovirus Type 22": {"system": "Rhinovirus Type 22", "assay": "Viral sensitivity, filter disc method", "assay_type": "cell-based", "details": "strain 127CV22; about 50 mcg per disc, HeLa", "protocol": "as §1, §2"}, "Rhinovirus Type 29": {"system": "Rhinovirus Type 29", "assay": "Viral sensitivity, filter disc method", "assay_type": "cell-based", "details": "strain 179E; about 50 mcg per disc, HeLa", "protocol": "as §1, §2"}, "Rhinovirus Type 45": {"system": "Rhinovirus Type 45", "assay": "Viral sensitivity, filter disc method", "assay_type": "cell-based", "details": "strain Baylor 1; about 50 mcg per disc, HeLa", "protocol": "as §1, §2"}, "Rhinovirus Type 41": {"system": "Rhinovirus Type 41", "assay": "Viral sensitivity, filter disc method", "assay_type": "cell-based", "details": "strain 56110; about 50 mcg per disc, HeLa", "protocol": "as §1, §2"}, "Rhinovirus Type 16": {"system": "Rhinovirus Type 16", "assay": "Viral sensitivity, filter disc method", "assay_type": "cell-based", "details": "strain 11757; about 50 mcg per disc, HeLa", "protocol": "as §1, §2"}, "Rhinovirus Type 4": {"system": "Rhinovirus Type 4", "assay": "Viral sensitivity, filter disc method", "assay_type": "cell-based", "details": "strain 16/60; about 50 mcg per disc, HeLa", "protocol": "as §1, §2"}, "Rhinovirus Type 12": {"system": "Rhinovirus Type 12", "assay": "Viral sensitivity, filter disc method", "assay_type": "cell-based", "details": "strain 181CV16; about 50 mcg per disc, HeLa", "protocol": "as §1, §2"}, "Rhinovirus Type 11": {"system": "Rhinovirus Type 11", "assay": "Viral sensitivity, filter disc method", "assay_type": "cell-based", "details": "strain 1CV15; about 50 mcg per disc, HeLa", "protocol": "as §1, §2"}, "Rhinovirus Type 10": {"system": "Rhinovirus Type 10", "assay": "Viral sensitivity, filter disc method", "assay_type": "cell-based", "details": "strain 204CV14; about 50 mcg per disc, HeLa", "protocol": "as §1, §2"}, "Rhinovirus Type 28": {"system": "Rhinovirus Type 28", "assay": "Viral sensitivity, filter disc method", "assay_type": "cell-based", "details": "strain 6101CV29; about 50 mcg per disc, HeLa", "protocol": "as §1, §2"}, "Rhinovirus Type 9": {"system": "Rhinovirus Type 9", "assay": "Viral sensitivity, filter disc method", "assay_type": "cell-based", "details": "strain 211CV13; about 50 mcg per disc, HeLa", "protocol": "as §1, §2"}, "Coxsackievirus A-5": {"system": "Coxsackievirus A-5", "assay": "Plaque assay, minimal inhibitory concentration", "assay_type": "cell-based", "details": "HeLa Cells, inhibiting virus plaque formation by 50%"}, "Rhinovirus Serotype 5": {"system": "Rhinovirus Serotype 5", "assay": "Plaque assay, minimal inhibitory concentration", "assay_type": "cell-based", "details": "Enterovirus; HeLa Cells; inhibiting virus plaque formation by 50%"}, "Coxsackievirus B-2": {"system": "Coxsackievirus B-2", "assay": "Plaque assay, minimal inhibitory concentration", "assay_type": "cell-based", "details": "HeLa Cells, inhibiting virus plaque formation by 50%"}, "Rhinovirus Serotype 23": {"system": "Rhinovirus Serotype 23", "assay": "Plaque assay, minimal inhibitory concentration", "assay_type": "cell-based", "details": "Enterovirus, inhibiting virus plaque formation by 50%"}, "[1]": {"system": "rhinoviruses and other picornaviruses, including coxsackie and poliovirus", "assay_type": "cell-based"}}, "data": [{"smiles": "N=C(Nc1ccccc1)Nc1nc(-c2ccccc2)cs1", "note": "[1-(4-phenyl-2-thiazolyl)-3-phenylguanidine]", "values": [{"measurement": "Protection of tissue from destruction by virus", "setting": "Rhinovirus strain 5", "result": "+"}, {"measurement": "IC50", "setting": "Rhinovirus Serotype 32", "result": 0.4, "unit": "µg/mL"}, {"measurement": "activity against rhinoviruses in three human epithelial cell lines", "setting": "rhinoviruses", "result": "equally active"}, {"measurement": "IC50", "setting": "Rhinovirus Serotype 12", "result": "0.2 to 0.4", "unit": "µg/mL"}, {"measurement": "IC50", "setting": "Coxsackievirus A-21", "result": "1.6 to 3.1", "unit": "µg/mL"}, {"measurement": "IC50", "setting": "Rhinovirus Serotype 39", "result": 0.4, "unit": "µg/mL"}, {"measurement": "IC50", "setting": "Coxsackievirus A-11", "result": "1.6 to 3.1", "unit": "µg/mL"}, {"measurement": "inhibition of rhinovirus serotype (zone of 10 mm or more)", "setting": "Rhinovirus Type 36", "result": "inhibited"}, {"measurement": "inhibition of rhinovirus serotype (zone of 10 mm or more)", "setting": "Rhinovirus Type 30", "result": "inhibited"}, {"measurement": "inhibition of rhinovirus serotype (zone of 10 mm or more)", "setting": "Rhinovirus Type 15", "result": "inhibited"}, {"measurement": "inhibition of rhinovirus serotype (zone of 10 mm or more)", "setting": "Rhinovirus Type 47", "result": "inhibited"}, {"measurement": "inhibition of rhinovirus serotype (zone of 10 mm or more)", "setting": "Rhinovirus Type 19", "result": "inhibited"}, {"measurement": "inhibition of rhinovirus serotype (zone of 10 mm or more)", "setting": "Rhinovirus Type 5", "result": "inhibited"}, {"measurement": "inhibition of rhinovirus serotype (zone of 10 mm or more)", "setting": "Rhinovirus Type 13", "result": "inhibited"}, {"measurement": "inhibition of rhinovirus serotype (zone of 10 mm or more)", "setting": "Rhinovirus Type 52", "result": "inhibited"}, {"measurement": "inhibition of rhinovirus serotype (zone of 10 mm or more)", "setting": "Rhinovirus Type 25", "result": "inhibited"}, {"measurement": "inhibition of rhinovirus serotype (zone of 10 mm or more)", "setting": "Rhinovirus Type 31", "result": "inhibited"}, {"measurement": "inhibition of rhinovirus serotype (zone of 10 mm or more)", "setting": "Rhinovirus Type 51", "result": "inhibited"}, {"measurement": "inhibition of rhinovirus serotype (zone of 10 mm or more)", "setting": "Rhinovirus Type 22", "result": "inhibited"}, {"measurement": "inhibition of rhinovirus serotype (zone of 10 mm or more)", "setting": "Rhinovirus Type 29", "result": "inhibited"}, {"measurement": "inhibition of rhinovirus serotype (zone of 10 mm or more)", "setting": "Rhinovirus Type 45", "result": "inhibited"}, {"measurement": "inhibition of rhinovirus serotype (zone of 10 mm or more)", "setting": "Rhinovirus Type 41", "result": "inhibited"}, {"measurement": "inhibition of rhinovirus serotype (zone of 10 mm or more)", "setting": "Rhinovirus Type 16", "result": "inhibited"}, {"measurement": "inhibition of rhinovirus serotype (zone of 10 mm or more)", "setting": "Rhinovirus Type 4", "result": "inhibited"}, {"measurement": "inhibition of rhinovirus serotype (zone of 10 mm or more)", "setting": "Rhinovirus Type 12", "result": "inhibited"}, {"measurement": "inhibition of rhinovirus serotype (zone of 10 mm or more)", "setting": "Rhinovirus Type 11", "result": "inhibited"}, {"measurement": "inhibition of rhinovirus serotype (zone of 10 mm or more)", "setting": "Rhinovirus Type 10", "result": "inhibited"}, {"measurement": "inhibition of rhinovirus serotype (zone of 10 mm or more)", "setting": "Rhinovirus Type 28", "result": "inhibited"}, {"measurement": "inhibition of rhinovirus serotype (zone of 10 mm or more)", "setting": "Rhinovirus Type 9", "result": "inhibited"}, {"measurement": "IC50", "setting": "Coxsackievirus A-5", "result": 0.4, "unit": "µg/mL"}, {"measurement": "IC50", "setting": "Rhinovirus Serotype 5", "result": "0.4 to 0.8", "unit": "µg/mL"}, {"measurement": "IC50", "setting": "Coxsackievirus B-2", "result": "0.8 to 1.6", "unit": "µg/mL"}, {"measurement": "IC50", "setting": "Rhinovirus Serotype 23; L132, L-132 Cells", "result": "0.4 to 0.8", "unit": "µg/mL"}, {"measurement": "IC50", "setting": "Rhinovirus Serotype 23; HeLa Cells", "result": "0.2 to 0.4", "unit": "µg/mL"}, {"measurement": "inhibition of virus growth", "setting": "[1]; by inhibitory effects on virus plaque formation and virus yield", "result": "concentration-related inhibition"}, {"measurement": "activity against rhinoviruses and other picornaviruses", "setting": "[1]; human cell cultures", "result": "active against a broad spectrum of rhinoviruses and other picornaviruses"}]}]}
